In patent US20240317727A1 (Duke University, priority 2018, published 2024):

How the values were obtained:
MDA-MB-435 = assay: NCI60 cell growth and viability: MDA-MB-435; assay type: cell-based; conditions: MDA-MB-435, Melanoma, two days
SK-MEL-2 = assay: NCI60 cell growth and viability: SK-MEL-2; assay type: cell-based; conditions: SK-MEL-2, Melanoma, two days
COLO 205 = assay: NCI60 cell growth and viability: COLO 205; assay type: cell-based; conditions: COLO 205, Colon Cancer, two days
OVCAR-3 = assay: NCI60 cell growth and viability: OVCAR-3
A549/ATCC = assay: NCI60 cell growth and viability: A549/ATCC; assay type: cell-based; conditions: Non-Small Cell Lung Cancer, two days
NCI-H226 = assay type: cell-based; conditions: NCI-H226, Non-Small Cell Lung Cancer, two days
KM12 = assay: NCI60 cell growth and viability: KM12; assay type: cell-based; conditions: KM12, Colon Cancer, two days
UACC-62 = assay: NCI60 cell growth and viability: UACC-62; assay type: cell-based; conditions: UACC-62, Melanoma, two days
HCC-2998 = assay: NCI60 cell growth and viability: HCC-2998; assay type: cell-based; conditions: HCC-2998, Colon Cancer, two days
MDA-MB-231 = assay: NCI60 cell growth and viability: MDA-MB-231; assay type: cell-based; conditions: MDA-MB-231, Breast Cancer, two days
SN12C = assay: NCI60 cell growth and viability: SN12C; assay type: cell-based; conditions: Renal Cancer, two days
NCI-H522 = assay type: cell-based; conditions: NCI-H522, Non-Small Cell Lung Cancer, two days
[1] = tested on: Hsp27, Hsp70, Hsp90 and p23; assay: Chaperone protein levels in C4-2 cells, immunoblot; assay type: cell-based, human; conditions: FIG. 4A/4B
MDA-MB-468 = assay: NCI60 cell growth and viability: MDA-MB-468
OVCAR-4 = assay: NCI60 cell growth and viability: OVCAR-4; assay type: cell-based; conditions: OVCAR-4, Ovarian Cancer, two days
HSF1 target gene, Hsp70 = assay: Hsp70 transcript in mouse liver and heart tissue, qRT-PCR; assay type: in vivo; conditions: mice, 25 mpk three times per week i.p., vs vehicle, relative to GAPDH, FIG. 6B
Description: The cells were treated for 96 hours with the indicated concentrations of the compounds of the disclosure and cell viability was measured with the AlamarBlue assay. […]. […] After sacrificing the mice on the last day of the administration, mouse liver and heart tissue was isolated, messenger RNA extracted and the transcript abundance of the HSF1 target gene, Hsp70, was evaluated by qRT-PCR relative to the internal RNA control, GAPDH. The results of the vehicle-treated versus Compound 0017-treated experiments were compared. […]; **=P<0.01 in accordance with one embodiment of the present disclosure.

HOP-62 = assay: NCI60 cell growth and viability: HOP-62; assay type: cell-based; conditions: HOP-62, Non-Small Cell Lung Cancer, two days
T-47D = assay: NCI60 cell growth and viability: T-47D; assay type: cell-based; conditions: Breast Cancer, two days
SNB-75 = assay: NCI60 cell growth and viability: SNB-75; assay type: cell-based; conditions: SNB-75, CNS Cancer, two days
U251 = assay: NCI60 cell growth and viability: U251; assay type: cell-based; conditions: U251, CNS Cancer, two days
HS 578T = assay: NCI60 cell growth and viability: HS 578T; assay type: cell-based; conditions: Breast Cancer, two days
EKVX = assay: NCI60 cell growth and viability: EKVX; assay type: cell-based; conditions: Non-Small Cell Lung Cancer, two days
[2] = Homo sapiens, 48 h, read-out: log10 [GI50 (M)] (converted)
[3] = Homo sapiens, 48 h, read-out: log10 [LC50 (M)] (converted)

O=C(Nc1ccc(F)cc1)Nc1ccc(Cl)c([N+](=O)[O-])c1 [Compound 0017, 1-(4-chloro-3-nitrophenyl)-3-(4-fluorophenyl)urea]
GI50 (MDA-MB-435; [2]): 3.09e-06 M | CC50 (MDA-MB-435; [3]): 4.37e-05 M | log10 [TGI (M)] (MDA-MB-435): −4.94 log10 M | GI50 (SK-MEL-2; [2]): 2.34e-06 M | CC50 (SK-MEL-2; [3]): 2.51e-05 M | log10 [TGI (M)] (SK-MEL-2): −5.23 log10 M | log10 [TGI (M)] (COLO 205): −5.20 log10 M | GI50 (COLO 205; [2]): 2.45e-06 M | CC50 (COLO 205; [3]): 3.47e-05 M | GI50 (OVCAR-3; Homo sapiens, OVCAR-3, 48 h, read-out: log10 [GI50 (M)] (converted)): 3.8e-06 M | CC50 (OVCAR-3; Homo sapiens, OVCAR-3, 48 h, read-out: log10 [LC50 (M)] (converted)): 9.55e-05 M | log10 [TGI (M)] (OVCAR-3; OVCAR-3, Ovarian Cancer, two days): −4.72 log10 M | GI50 (A549/ATCC; [2]): 3.09e-06 M | CC50 (A549/ATCC; [3]): ≥ 0.0001 M | log10 [TGI (M)] (A549/ATCC): −4.79 log10 M | GI50 (NCI-H226; [2]): 2.29e-06 M | LC50 (NCI-H226; [3]): 3.63e-05 M | log10 [TGI (M)] (NCI-H226): −5.03 log10 M | GI50 (KM12; [2]): 3.31e-06 M | CC50 (KM12; [3]): 9.12e-05 M | log10 [TGI (M)] (KM12): −4.86 log10 M | GI50 (UACC-62; [2]): 3.02e-06 M | CC50 (UACC-62; [3]): 3.63e-05 M | log10 [TGI (M)] (UACC-62): −4.88 log10 M | log10 [TGI (M)] (HCC-2998): −4.84 log10 M | GI50 (HCC-2998; [2]): 3.72e-06 M | CC50 (HCC-2998; [3]): 4.27e-05 M | GI50 (MDA-MB-231; [2]): 2.51e-06 M | CC50 (MDA-MB-231; [3]): 3.39e-05 M | log10 [TGI (M)] (MDA-MB-231): −5.19 log10 M | GI50 (SN12C; [2]): 2.95e-06 M | CC50 (SN12C; [3]): 4.27e-05 M | log10 [TGI (M)] (SN12C): −4.93 log10 M | GI50 (NCI-H522; [2]): 2.45e-06 M | CC50 (NCI-H522; [3]): 4.68e-05 M | log10 [TGI (M)] (NCI-H522): −4.97 log10 M | steady-state protein level of Hsp27, Hsp70, Hsp90 and p23 [1]: dose-dependently reduced | GI50 (MDA-MB-468; Homo sapiens, MDA-MB-468, 48 h, read-out: log10 [GI50 (M)] (converted)): 2.14e-06 M | CC50 (MDA-MB-468; Homo sapiens, MDA-MB-468, 48 h, read-out: log10 [LC50 (M)] (converted)): 3.55e-05 M | log10 [TGI (M)] (MDA-MB-468; MDA-MB-468, Breast Cancer, two days): −5.12 log10 M | GI50 (OVCAR-4; [2]): 2.75e-06 M | CC50 (OVCAR-4; [3]): 8.71e-05 M | log10 [TGI (M)] (OVCAR-4): −4.85 log10 M | Hsp70 transcript abundance in liver and heart tissue (HSF1 target gene, Hsp70): inhibits expression of the HSF1 target Hsp70 | log10 [TGI (M)] (HOP-62): −4.80 log10 M | GI50 (HOP-62; [2]): 3.8e-06 M | CC50 (HOP-62; [3]): 5.62e-05 M | log10 [TGI (M)] (T-47D): −5.01 log10 M | GI50 (T-47D; Homo sapiens, T47D, 48 h, read-out: log10 [GI50 (M)] (converted)): 2.19e-06 M | CC50 (T-47D; Homo sapiens, T47D, 48 h, read-out: log10 [LC50 (M)] (converted)): 5.13e-05 M | GI50 (SNB-75; [2]): 5.89e-06 M | CC50 (SNB-75; [3]): ≥ 0.0001 M | log10 [TGI (M)] (SNB-75): −4.00 log10 M | GI50 (U251; Homo sapiens, U-251, 48 h, read-out: log10 [GI50 (M)] (converted)): 3.16e-06 M | CC50 (U251; Homo sapiens, U-251, 48 h, read-out: log10 [LC50 (M)] (converted)): 4.37e-05 M | log10 [TGI (M)] (U251): −4.90 log10 M | log10 [TGI (M)] (HS 578T): −4.62 log10 M | GI50 (HS 578T; [2]): 3.98e-06 M | CC50 (HS 578T; [3]): ≥ 0.0001 M | GI50 (EKVX; [2]): 2.82e-06 M | CC50 (EKVX; [3]): 6.17e-05 M | log10 [TGI (M)] (EKVX): −4.96 log10 M
